In patent publication US20050101595A1, “N-containing cycloalkyl-substituted amino-thiazole derivatives and pharmaceutical compositions for inhibiting cell proliferation and methods for their use” (PFIZER INC., priority 2003, published 2005):
Where a name gives a salt, the structure may show the parent alone.

Columns and labels:
[1] = molecular target: CDK2/Cyclin A (Homo sapiens, UniProt P24941); experiment: Inhibition of CDK2/Cyclin A Retinoblastoma Kinase Activity; assay type: biochemical; details: for Ki: apparent Ki, CDK2/proteolyzed cyclin A, Rb fragment substrate, 25 μM ATP; for inhibition at 0.05 µM: read-out: % inhibition of CDK2 (@ 0.05 μM), compound at 0.05 μM
Description: Cyclin-dependent kinase activity was measured by quantifying the enzyme-catalyzed, time-dependent incorporation of radioactive phosphate from [^32P]ATP or [^33P]ATP into a protein substrate. Unless noted otherwise, assays were performed in 96-well plates in a total volume of 50 μL, in the presence of 10 mM HEPES (N-[2-hydroxyethyl]piperazine-N′-[2-ethanesulfonic acid]) (pH 7.4), 10 mM MgCl2, 25 μM adenosine triphosphate (ATP), 1 mg/mL ovalbumin, 5 μg/mL leupeptin, 1 mM dithiothreitol, 10 mM β-glycerophosphate, 0.1 mM sodium vanadate, 1 mM sodium fluoride, 2.5 mM ethylene glycol-bis(β-aminoethyl ether)-N,N,N′N′-tetraacetic acid (EGTA), 2% (v/v) dimethylsulfoxide, and 0.03-0.4 μCi [^32/33P]ATP per reaction. Reactions were initiated with enzyme, incubated at 30° C., and terminated after 20 minutes by the addition of ethylenediaminetetraacetic acid (EDTA) to 250 mM. The phosphorylated substrate was then captured on a nitrocellulose or phosphocellulose membrane using a 96-well filtration manifold, and unincorporated radioactivity was removed by repeated washing with 0.85% phosphoric acid. Radioactivity was quantified by exposing the dried membranes to a phosphorimager.
Inhibition was measured relative to control wells that contained all reaction components including 2% (v/v) DMSO but no compound, after subtraction of background radioactivity measured in the absence of enzyme. Apparent Ki values of discrete compounds were measured by assaying enzyme activity in the presence of different inhibitor compound concentrations and subtracting the background radioactivity measured in the absence of enzyme. The kinetic parameters (kcat, Km for ATP) were measured for each enzyme under the usual assay conditions by determining the dependence of initial rates on ATP concentration. Inhibition data were fit to an equation for competitive inhibition using Kaleidagraph (Synergy Software), or were fit to an equation for competitive tight-binding inhibition using the software KineTic (BioKin, Ltd.).
Inhibition of CDK2/Cyclin A Retinoblastoma Kinase Activity:
CDK2 was purified using published methodology (Rosenblatt et al., “Purification and Crystallization of Human Cyclin-dependent Kinase 2,” J. Mol. Biol., vol. 230, 1993, pp. 1317-1319) from insect cells that had been infected with a baculovirus expression vector. […] A complex of CDK2 and proteolyzed cyclin A was prepared and purified by gel filtration. The substrate for this assay was the same Rb substrate fragment used for the CDK4 assays, and the methodology of the CDK2/delta cyclin A and the CDK4/delta cyclin D3 assays was essentially the same, except that CDK2 was present at 10 nM or 19 nM. The duration of the assay was 60 or 75 minutes, during which the time-dependence of product formation was linear and initial rate conditions were met. And, the percent inhibitions of the compounds of Example O through Example R were calculated as described above and shown in Table 2.

[2] = system: HCT-116 cell line; experiment: Inhibition of cell growth, tetrazolium salt (MTT) assay; assay type: cell-based; details: Homo sapiens, MTT; for IC50: HCT-116, 120 h, first HCT-116 column (c4), three to five days, read-out: HCT-116 IC50; for inhibition at 0.175 µM: HCT-116, HCT-116 cells, compound at 0.175 uM
Procedure, shortened: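 First, cells were seeded in McCoy's 5A medium and held 4 h. Next, inhibitor concentrations in 0.5% (v/v) DMSO were applied for three to five days at 37° C, 5% CO2. Finally, after 4 h with 0.2 mg/mL MTT and medium removal, solubilized formazan was measured at 540 nm.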

SMILES	Ki [1]	IC50 [2]	inhibition at 0.05 µM [1]	inhibition at 0.175 µM [2]
Cc1cccc(CNCCCS(=O)(=O)N2CCC(Nc3nc(N)c(C(=O)c4c(F)cccc4F)s3)CC2)c1 [Example V180, (4-Amino-2-{[1-({3-[(3-methylbenzyl)amino]propyl}sulfonyl)-4-piperidinyl]amino}-1,3-thiazol-5-yl)(2,6-difluorophenyl)methanone.]	4 nM	90 nM	–	–
C=C(C)CN(C)CCCS(=O)(=O)N1CCC(Nc2nc(N)c(C(=O)c3c(F)cccc3F)s2)CC1 [Example V177, (4-Amino-2-{[1-({3-[methyl(2-methyl-2-propen-1-yl)amino]propyl}sulfonyl)-4-piperidinyl]amino}-1,3-thiazol-5-yl)(2,6-difluorophenyl)methanone.]	17 nM	90 nM	–	–
Nc1nc(NC2CCN(S(=O)(=O)CCCNCCN3CCOCC3)CC2)sc1C(=O)c1c(F)cccc1F [Example V10]	–	–	69%	3%
CN(CCCS(=O)(=O)N1CCC(Nc2nc(N)c(C(=O)c3c(F)cccc3F)s2)CC1)CC(N)=O [Example V138]	–	–	76%	0%
COCCN(C)CCCS(=O)(=O)N1CCC(Nc2nc(N)c(C(=O)c3c(F)cccc3F)s2)CC1 [Example V107]	–	–	78%	36%
CN(C)CCCN(C)CCCS(=O)(=O)N1CCC(Nc2nc(N)c(C(=O)c3c(F)cccc3F)s2)CC1 [Example V32]	–	–	78%	11%
CC(O)CNCCCS(=O)(=O)N1CCC(Nc2nc(N)c(C(=O)c3c(F)cccc3F)s2)CC1 (stereo not shown) [Example V42]	–	–	79%	4%
Nc1nc(NC2CCN(S(=O)(=O)CCCN(CCO)CCO)CC2)sc1C(=O)c1c(F)cccc1F [Example V78]	–	–	80%	7%
Nc1nc(NC2CCN(S(=O)(=O)CCCN3CCC(O)CC3)CC2)sc1C(=O)c1c(F)cccc1F [Example V25]	–	–	73%	16%
CNCCCS(=O)(=O)N1CCC(Nc2nc(N)c(C(=O)c3c(F)cccc3F)s2)CC1 [Example V86]	–	–	61%	22%
CCCCCNCCCS(=O)(=O)N1CCC(Nc2nc(N)c(C(=O)c3c(F)cccc3F)s2)CC1 [Example V89]	–	–	85%	42%
C=CCNCCCS(=O)(=O)N1CCC(Nc2nc(N)c(C(=O)c3c(F)cccc3F)s2)CC1 [Example K57, {2-[1-(3-Allylamino-propane-1-sulfonyl)-piperidin-4-ylamino]-4-amino-thiazol-5-yl}-(2,6-difluoro-phenyl)-methanone. Trifluoroacetic Acid Salt]	7 nM	480 nM	–	–
COC(=O)[C@@H]1CCCN1CCCS(=O)(=O)N1CCC(Nc2nc(N)c(C(=O)c3c(F)cccc3F)s2)CC1 [Example V139]	–	–	79%	0%
Nc1nc(NC2CCN(S(=O)(=O)CCCNc3ccccn3)CC2)sc1C(=O)c1c(F)cccc1F [Example V2]	–	–	85%	6%
CCc1cccc(NCCCS(=O)(=O)N2CCC(Nc3nc(N)c(C(=O)c4c(F)cccc4F)s3)CC2)n1 [Example V113]	–	–	79%	19%
COC(=O)C1CCN(CCCS(=O)(=O)N2CCC(Nc3nc(N)c(C(=O)c4c(F)cccc4F)s3)CC2)C1 (stereo not shown) [Example V160]	–	–	84%	0%
CCCN(CCO)CCCS(=O)(=O)N1CCC(Nc2nc(N)c(C(=O)c3c(F)cccc3F)s2)CC1 [Example V106]	–	–	82%	11%
Nc1nc(NC2CCN(S(=O)(=O)CCCNCCc3ccncc3)CC2)sc1C(=O)c1c(F)cccc1F [Example V94]	–	–	87%	0%
CC1CCN(CCCS(=O)(=O)N2CCC(Nc3nc(N)c(C(=O)c4c(F)cccc4F)s3)CC2)CC1 [Example V102]	–	–	80%	89%
Nc1nc(NC2CCN(S(=O)(=O)CCCNCC(O)CO)CC2)sc1C(=O)c1c(F)cccc1F (stereo not shown) [Example V48]	–	–	79%	7%
